This note sets out measurements from patent US11713470B2, “Targeted gene therapies for pain and other neuro-related disorders” (University of Pittsburgh—Of the Commonwealth System of …, priority 2017, dated 2023).

What all share (type): in vivo, mouse
For one assay, the system named is mice lacking PSAM4. The assay can be described thus: Mechanical and heat sensitivity at baseline and after CFA or sural-SNI in wildtype C57Bl/6 mice lacking PSAM4. The conditions noted are these: 0.1 mpk i.p. The method, then: (§1) Mechanical and heat hypersensitivity was tested in adult wildtype male and female C57Bl/6 mice (not injected with mCCK-PSAM4 virus) before and after intraperitoneal injection of (i.p) varenicline (0.1 milligram per kilogram (mpk) (FIG. 13). We also tested these parameters before and 2-5 days after induction of the complete Freund's adjuvant (CFA)-model of inflammatory pain and 7 days after induction of the sural version of the spared nerve injury (SNI) model of neuropathic pain (FIG. 13). Sensitivity to mechanical stimuli was tested by measuring the paw withdrawal threshold to von Frey filaments (PWT) and the paw withdrawal response to a cotton swab (percentage of response) as described previously (Peirs, C. et al. Dorsal Horn Circuits for Persistent Mechanical Pain. Neuron 87, 797-812 (2015)). Heat sensitivity was tested by measuring the withdrawal latency to a radiant heat source using the Hargreaves apparatus (PWL) as described previously (Peirs, C. et al. Dorsal Horn Circuits for Persistent Mechanical Pain. Neuron 87, 797-812 (2015)).

In assay [1] the target is T1, PSAM4 in dorsal horn CCK+ neurons (Homo sapiens, UniProt P23415+P36544, L131G/Q139L/Y217F). In words: Baseline mechanical and heat sensitivity in mice injected with AAV8 mCCK-PSAM4 virus. The conditions noted are these: 0.3 mpk i.p., 2 weeks after AAV8 mCCK-PSAM4, 30-60 minutes after drug. How it is done:
(§2) The mouse cholecystokinin (CCK) promoter with an added chimeric intron to drive expression of α7^L131G, Q139L, Y217F GlyR (PSAM4) was packaged into AAV2/8 and injected into the dorsal horn of 3-week-old wildtype C57Bl/6 male and female mice. Injection of AAV into the dorsal horn was performed as described previously (Peirs, C. et al. Dorsal Horn Circuits for Persistent Mechanical Pain. Neuron 87, 797-812 (2015)). See FIG. 11 for a schematic of the plasmid used to produce these rAAV particles. Briefly, a 2.5 kb fragment of the mouse CCK promoter was subcloned upstream of the PSAM4 gene with the chimeric intron (135 bp) located in between.
as §1
Mice were injected unilaterally in the dorsal horn with AAV8 mCCK-PSAM4 virus and tested two weeks later. […] The ipsilateral plantar hindpaw of the mice was injected with CFA and PWTs and response frequencies tested 3 days later in the absence and presence of varenicline (0.3 mpk, i.p.).

The target of assay [2] is T1, PSAM4 in dorsal horn CCK+ neurons. The assay can be described thus: CFA-induced mechanical allodynia in mice expressing mCCK-PSAM4 in the dorsal horn. The conditions noted are these: 0.3 mpk i.p., 3 days after CFA. How it is done: as §2, with “between. […]” for “between.”
Assay [3] has the same target. The assay can be described thus: Sural-SNI-induced mechanical allodynia in mice expressing mCCK-PSAM4 in the dorsal horn. The conditions noted are these: 0.3 mpk i.p., 7 days after sural-SNI. How it is done:
as §2, with “between. […]” for “between.”

Where [4] appears, read: uninjured mice without PSAM4, 30-60 minutes after injection.

Entries after “also recorded” stand apart in the source; their conditions may differ.

T1 sequence (P36544+P23415 fused P36544:L131G/P36544:Q139L/P36544:Y217F): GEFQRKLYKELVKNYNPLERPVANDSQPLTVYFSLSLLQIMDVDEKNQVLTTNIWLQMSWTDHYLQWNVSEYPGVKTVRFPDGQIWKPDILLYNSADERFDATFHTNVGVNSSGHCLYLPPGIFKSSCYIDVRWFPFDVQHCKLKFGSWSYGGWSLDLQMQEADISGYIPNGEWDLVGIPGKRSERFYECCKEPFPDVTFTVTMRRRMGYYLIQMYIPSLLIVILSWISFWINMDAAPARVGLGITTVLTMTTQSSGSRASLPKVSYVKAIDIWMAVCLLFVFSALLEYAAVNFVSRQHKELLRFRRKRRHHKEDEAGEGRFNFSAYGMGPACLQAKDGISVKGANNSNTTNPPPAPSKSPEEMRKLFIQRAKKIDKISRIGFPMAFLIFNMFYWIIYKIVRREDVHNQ

As to `c1cnc2cc3c(cc2n1)[C@@H]1CNC[C@H]3C1` [varenicline], the “heat hypersensitivity after CFA” value in the assay on mice lacking PSAM4 (mice without PSAM4, 2 days after CFA) is “no effect”. Moreover, the “mechanical hypersensitivity after CFA” value in the assay with mice lacking PSAM4 (mice without PSAM4, 3 days after CFA) is “no effect”. Further, in the assay with mice lacking PSAM4 (mice without PSAM4, 7 days after sural-SNI), the “mechanical or heat hypersensitivity after sural-SNI” value is recorded as “no effect”. In addition, in the assay on mice lacking PSAM4 (setting [4]), the “baseline PWL (withdrawal latency, Hargreaves)” value is recorded as “no effect”; the “baseline PWT (paw withdrawal threshold to von Frey filaments)” value is given as “no effect”; the “baseline response frequency to cotton swab” value is “no effect”. In assay [1], the “baseline PWL” value is reported as “no effect; also recorded: did not alter”, the “baseline PWT” value is reported as “no effect; also recorded: did not alter” and the “baseline percentage response (response frequency to cotton swab)” value is given as “no effect; also recorded: did not alter”. Besides, in assay [2], the “PWT to von Frey filaments after CFA” value was “markedly reversed” and the “response frequency to cotton swab after CFA” value is recorded as “markedly reversed”. Besides, in assay [3], the “PWT to von Frey filaments after sural-SNI” value is on record as “markedly reversed”.
